# Measured values as given in patent publication US9296723B2, “NAMPT inhibitors” (AbbVie Inc., priority 2012, dated 2016).
# Tests used:
# PC3 cells = test: NAMPT Cell Proliferation Assay (Cell Titer Glo); format: cell-based; conditions: Homo sapiens, PC-3, 120 h, incubated 5 days, cell viability
# How it was run: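 Viability measured by Cell Titer Glo luminescence after 5-day exposure of attached PC3 cells to compound, dosed as 10-fold serial dilutions ([…]) in RPMI/10% FBS at 37 °C and 5% CO2. Percent inhibition fitted to sigmoidal dose-response curves for IC50.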
# NAMPT = NAMPT (Homo sapiens, UniProt P43490); test: Time-Resolved Fluorescence Resonance Energy Transfer (TR-FRET) Binding Assay of NAMPT; conditions: 6.8 nM NAMPT, 200 nM probe, equilibrated 3 hours, no substrates
# How it was run: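 IC50s come from four-parameter logistic fits of control-normalized Em520/Em495 TR-FRET ratios (Ex 337 nm) against compound concentration. Before reading, enzyme, probe, antibody and compound equilibrated for 3 h at room temperature.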
# NAMPT, sequence (P43490 whole entry): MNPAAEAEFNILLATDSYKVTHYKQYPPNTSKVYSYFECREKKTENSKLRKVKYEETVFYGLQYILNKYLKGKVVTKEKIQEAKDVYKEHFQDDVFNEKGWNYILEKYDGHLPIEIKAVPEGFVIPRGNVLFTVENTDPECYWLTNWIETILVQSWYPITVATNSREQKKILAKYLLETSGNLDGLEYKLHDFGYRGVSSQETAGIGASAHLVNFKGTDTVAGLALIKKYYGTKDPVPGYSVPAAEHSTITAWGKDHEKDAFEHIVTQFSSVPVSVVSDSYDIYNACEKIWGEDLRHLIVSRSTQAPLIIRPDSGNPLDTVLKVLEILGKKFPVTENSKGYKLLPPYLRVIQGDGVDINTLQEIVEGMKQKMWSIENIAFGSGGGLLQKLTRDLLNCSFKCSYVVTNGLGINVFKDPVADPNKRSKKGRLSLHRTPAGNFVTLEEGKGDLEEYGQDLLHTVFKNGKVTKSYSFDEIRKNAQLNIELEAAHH
IC50 (PC3 cells) [nM],IC50 (NAMPT) [nM],Structure (SMILES)
87.6,138,"O=C(CC1CC1)N1CC[C@H](Oc2ccc(NC(=O)N3CC(c4cccnc4)C3)cc2)C1 [Example 93, N-(4-{[(3S)-1-(cyclopropylacetyl)pyrrolidin-3-yl]oxy}phenyl)-3-(pyridin-3-yl)azetidine-1-carboxamide]"
66.2,79.1,"O=C(Nc1ccc(O[C@H]2CCN(C(=O)c3ccccc3)C2)cc1)N1CC(c2cccnc2)C1 [Example 95, N-(4-{[(3S)-1-benzoylpyrrolidin-3-yl]oxy}phenyl)-3-(pyridin-3-yl)azetidine-1-carboxamide]"
171,265,"O=C(CC(F)(F)F)N1CC[C@H](Oc2ccc(NC(=O)N3CC(c4cccnc4)C3)cc2)C1 [Example 96, 3-(pyridin-3-yl)-N-(4-{[(3S)-1-(3,3,3-trifluoropropanoyl)pyrrolidin-3-yl]oxy}phenyl)azetidine-1-carboxamide]"
76.7,168,"O=C(Nc1ccc(O[C@H]2CCN(C(=O)C3CC3)C2)cc1)N1CC(c2cccnc2)C1 [Example 97, N-(4-{[(3S)-1-(cyclopropylcarbonyl)pyrrolidin-3-yl]oxy}phenyl)-3-(pyridin-3-yl)azetidine-1-carboxamide]"
6.11,9.22,"O=C(Nc1ccc(OC2CN(C(=O)c3ccco3)C2)cc1)N1CC(c2cccnc2)C1 [Example 115, N-(4-{[1-(furan-2-ylcarbonyl)azetidin-3-yl]oxy}phenyl)-3-(pyridin-3-yl)azetidine-1-carboxamide]"
8.81,14.7,"CC(C)C(C)C(=O)N1CC(Oc2ccc(NC(=O)N3CC(c4cccnc4)C3)cc2)C1 (centres unmarked) [Example 123, N-(4-{[1-(2,3-dimethylbutanoyl)azetidin-3-yl]oxy}phenyl)-3-(pyridin-3-yl)azetidine-1-carboxamide]"
5.13,16.7,"O=C(Nc1ccc(OC2CN(C(=O)c3cscn3)C2)cc1)N1CC(c2cccnc2)C1 [Example 147, 3-(pyridin-3-yl)-N-(4-{[1-(1,3-thiazol-4-ylcarbonyl)azetidin-3-yl]oxy}phenyl)azetidine-1-carboxamide]"
15.4,20.8,"O=C(Nc1ccc(OC2CN(C(=O)c3ccoc3)C2)cc1)N1CC(c2cccnc2)C1 [Example 151, N-(4-{[1-(furan-3-ylcarbonyl)azetidin-3-yl]oxy}phenyl)-3-(pyridin-3-yl)azetidine-1-carboxamide]"
7.89,24,"O=C(Nc1ccc(OC2CN(C(=O)c3nccs3)C2)cc1)N1CC(c2cccnc2)C1 [Example 154, 3-(pyridin-3-yl)-N-(4-{[1-(1,3-thiazol-2-ylcarbonyl)azetidin-3-yl]oxy}phenyl)azetidine-1-carboxamide]"
37.8,22.6,"CC(C)Cn1cc(-c2ccc(NC(=O)N3CC(c4cccnc4)C3)cc2)cn1 [Example 157, N-{4-[1-(2-methylpropyl)-1H-pyrazol-4-yl]phenyl}-3-(pyridin-3-yl)azetidine-1-carboxamide]"
36.5,26.3,"CCCn1cc(-c2ccc(NC(=O)N3CC(c4cccnc4)C3)cc2)cn1 [Example 158, N-[4-(1-propyl-1H-pyrazol-4-yl)phenyl]-3-(pyridin-3-yl)azetidine-1-carboxamide]"
617,317,"O=C(Nc1ccc(C2CN(CC3CCCC3)C2)cc1)N1CC(c2cccnc2)C1 [Example 245, N-{4-[1-(cyclopentylmethyl)azetidin-3-yl]phenyl}-3-(pyridin-3-yl)azetidine-1-carboxamide]"
541,193,"CCCC(C)CN1CC(c2ccc(NC(=O)N3CC(c4cccnc4)C3)cc2)C1 (centres unmarked) [Example 249, N-{4-[1-(2-methylpentyl)azetidin-3-yl]phenyl}-3-(pyridin-3-yl)azetidine-1-carboxamide]"
691,191,"O=C(CN1CCCC1)N1CCC(c2ccc(NC(=O)N3CC(c4cccnc4)C3)cc2)C1 (centres unmarked) [Example 265, 3-(pyridin-3-yl)-N-{4-[1-(pyrrolidin-1-ylacetyl)pyrrolidin-3-yl]phenyl}azetidine-1-carboxamide]"
207,96.2,"CN(C)CCC(=O)N1CCC(c2ccc(NC(=O)N3CC(c4cccnc4)C3)cc2)C1 (stereo not drawn) [Example 266, N-{4-[1-(N,N-dimethyl-beta-alanyl)pyrrolidin-3-yl]phenyl}-3-(pyridin-3-yl)azetidine-1-carboxamide]"
16.7,20.1,"CC1(C(=O)N2CCC(c3ccc(NC(=O)N4CC(c5cccnc5)C4)cc3)C2)CC1 (centres unmarked) [Example 269, N-(4-{1-[(1-methylcyclopropyl)carbonyl]pyrrolidin-3-yl}phenyl)-3-(pyridin-3-yl)azetidine-1-carboxamide]"
7270,203,"O=C1CC[C@@H](C(=O)N2CCC(c3ccc(NC(=O)N4CC(c5cccnc5)C4)cc3)C2)N1 (stereo partly drawn) [Example 273, N-{4-[1-(5-oxo-L-prolyl)pyrrolidin-3-yl]phenyl}-3-(pyridin-3-yl)azetidine-1-carboxamide]"
63.1,76.7,"CC(=O)N1CCC(c2ccc(NC(=O)N3CC(c4cccnc4)C3)cc2)C1 (centres unmarked) [Example 277, N-[4-(1-acetylpyrrolidin-3-yl)phenyl]-3-(pyridin-3-yl)azetidine-1-carboxamide]"
114,101,"COCCOCC(=O)N1CCC(c2ccc(NC(=O)N3CC(c4cccnc4)C3)cc2)C1 (centres unmarked) [Example 280, N-(4-{1-[(2-methoxyethoxy)acetyl]pyrrolidin-3-yl}phenyl)-3-(pyridin-3-yl)azetidine-1-carboxamide]"
125,65.6,"O=C(CCN1CCOCC1)N1CCC(c2ccc(NC(=O)N3CC(c4cccnc4)C3)cc2)C1 (centres unmarked) [Example 281, N-(4-{1-[3-(morpholin-4-yl)propanoyl]pyrrolidin-3-yl}phenyl)-3-(pyridin-3-yl)azetidine-1-carboxamide]"
26.5,17.2,"Cn1cccc1C(=O)N1CCC(c2ccc(NC(=O)N3CC(c4cccnc4)C3)cc2)C1 (centres unmarked) [Example 285, N-(4-{1-[(1-methyl-1H-pyrrol-2-yl)carbonyl]pyrrolidin-3-yl}phenyl)-3-(pyridin-3-yl)azetidine-1-carboxamide]"
7.66,9.76,"O=C(Nc1ccc(C2CCN(C(=O)c3ccco3)C2)cc1)N1CC(c2cccnc2)C1 (centres unmarked) [Example 286, N-{4-[1-(furan-2-ylcarbonyl)pyrrolidin-3-yl]phenyl}-3-(pyridin-3-yl)azetidine-1-carboxamide]"
11.2,35.2,"CCC(C)CC(=O)N1CC[C@@H](Oc2ccc(NC(=O)N3CC(c4cccnc4)C3)cc2)C1 (stereo partly drawn) [Example 298, N-(4-{[(3R)-1-(3-methylpentanoyl)pyrrolidin-3-yl]oxy}phenyl)-3-(pyridin-3-yl)azetidine-1-carboxamide]"
298,507,"CN(C)CCC(=O)N1CC[C@@H](Oc2ccc(NC(=O)N3CC(c4cccnc4)C3)cc2)C1 [Example 306, N-(4-{[(3R)-1-(N,N-dimethyl-beta-alanyl)pyrrolidin-3-yl]oxy}phenyl)-3-(pyridin-3-yl)azetidine-1-carboxamide]"
54.2,48.7,"CC(C)CCC(=O)N1CC[C@@H](Oc2ccc(NC(=O)N3CC(c4cccnc4)C3)cc2)C1 [Example 315, N-(4-{[(3R)-1-(4-methylpentanoyl)pyrrolidin-3-yl]oxy}phenyl)-3-(pyridin-3-yl)azetidine-1-carboxamide]"
